Among the data in patent US12624044B2, “SMARCA degraders and uses thereof” (Kymera Therapeutics, Inc., priority 2019, dated 2026) are Dmax and DC50 values, retold here.

This assay deals with SMARCA2 (Homo sapiens, UniProt P51531). In words: MSD SMARCA2 degradation in NCI-H1299 cell line (24 h). It is filed as cell-based. Further details: HC: NCI-H1299 cells treated with DMSO; host or cells: NCI-H1299. The settings on record: for Dmax: NCI-H1299, NCI-H1299 cells; for DC50: NCI-H1299 cells, read-out: SMARCA2 MSD H1299 degradation 24 h: External Abs-DC50. The essentials: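 SMARCA2 measured by MSD electrochemiluminescence (primary 0.3 ug/ml, secondary 1 ug/ml) on lysates from NCI-H1299 cells exposed to compounds for 24 h across nine 3-fold dilutions. Signal scaled from A2780 cells (no SMARCA2) to DMSO-treated H1299 controls, and maximal degradation after 24 h reported in letter categories.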
SMARCA2, sequence (P51531 whole entry): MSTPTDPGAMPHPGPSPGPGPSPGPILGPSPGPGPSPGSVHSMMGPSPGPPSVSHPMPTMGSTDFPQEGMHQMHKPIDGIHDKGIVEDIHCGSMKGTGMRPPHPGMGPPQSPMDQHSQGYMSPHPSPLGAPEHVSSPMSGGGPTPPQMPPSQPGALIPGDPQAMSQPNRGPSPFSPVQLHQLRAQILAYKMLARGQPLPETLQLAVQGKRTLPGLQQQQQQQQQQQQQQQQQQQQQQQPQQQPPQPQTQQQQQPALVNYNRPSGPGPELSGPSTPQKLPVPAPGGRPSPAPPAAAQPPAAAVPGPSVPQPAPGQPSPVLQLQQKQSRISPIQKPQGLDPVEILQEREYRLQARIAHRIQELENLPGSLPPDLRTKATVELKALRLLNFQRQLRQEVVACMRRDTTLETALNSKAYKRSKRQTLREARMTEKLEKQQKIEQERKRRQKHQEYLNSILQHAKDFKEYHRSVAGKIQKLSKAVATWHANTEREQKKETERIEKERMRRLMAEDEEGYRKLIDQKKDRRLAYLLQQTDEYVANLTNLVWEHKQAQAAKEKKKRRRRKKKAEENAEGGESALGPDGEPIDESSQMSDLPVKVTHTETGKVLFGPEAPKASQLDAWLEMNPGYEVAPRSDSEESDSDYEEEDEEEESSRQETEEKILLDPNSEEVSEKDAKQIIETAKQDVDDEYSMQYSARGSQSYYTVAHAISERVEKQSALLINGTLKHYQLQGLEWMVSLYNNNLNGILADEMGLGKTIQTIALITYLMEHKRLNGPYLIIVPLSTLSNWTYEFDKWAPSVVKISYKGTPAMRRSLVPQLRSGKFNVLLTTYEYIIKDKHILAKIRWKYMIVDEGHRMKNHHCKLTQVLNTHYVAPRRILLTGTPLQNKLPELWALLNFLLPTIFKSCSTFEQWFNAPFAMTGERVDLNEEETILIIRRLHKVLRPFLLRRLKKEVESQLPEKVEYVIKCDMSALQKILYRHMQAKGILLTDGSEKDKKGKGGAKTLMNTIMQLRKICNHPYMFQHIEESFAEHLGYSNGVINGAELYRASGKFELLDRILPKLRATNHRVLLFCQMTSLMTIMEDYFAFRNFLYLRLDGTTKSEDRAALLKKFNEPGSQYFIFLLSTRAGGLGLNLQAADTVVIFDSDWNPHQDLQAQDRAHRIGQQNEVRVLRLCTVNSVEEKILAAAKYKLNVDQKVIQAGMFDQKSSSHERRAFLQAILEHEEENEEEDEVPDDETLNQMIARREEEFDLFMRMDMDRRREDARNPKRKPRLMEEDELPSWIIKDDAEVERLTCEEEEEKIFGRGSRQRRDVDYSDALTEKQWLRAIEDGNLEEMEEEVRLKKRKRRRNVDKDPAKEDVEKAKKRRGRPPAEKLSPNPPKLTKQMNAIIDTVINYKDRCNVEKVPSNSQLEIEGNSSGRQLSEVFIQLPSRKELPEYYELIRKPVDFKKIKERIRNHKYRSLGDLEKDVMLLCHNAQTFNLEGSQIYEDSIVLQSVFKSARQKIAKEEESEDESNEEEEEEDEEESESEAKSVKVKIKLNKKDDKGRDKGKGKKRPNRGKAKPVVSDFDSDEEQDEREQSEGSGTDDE

For the molecule `Cn1c(=O)n(C2CCC(=O)NC2=O)c2ccc(CCCOc3ccc(CN4CCN(c5cc(-c6ccccc6O)nnc5N)CC4)cc3)cc21` (stereo not drawn) [I-83, 3-(5-(3-(4-((4-(3-amino-6-(2-hydroxyphenyl)pyridazin-4-yl)piperazin-1-yl)methyl)phenoxy)propyl)-3-methyl-2-oxo-2,3-dihydro-1H-benzo[d]imidazol-1-yl)piperidine-2,6-dione], the Dmax is under 50% and the 50% degradation concentration (DC50) was over 1000 nM.

With `Cn1c(=O)n(C2CCC(=O)NC2=O)c2ccc(CCCCOc3ccc(CN4CCN(c5cc(-c6ccccc6O)nnc5N)CC4)cc3)cc21` (stereo not drawn) [I-84], the Dmax was under 50% and the half-maximal degradation concentration (DC50) is over 1000 nM.

Consider `Cn1c(=O)n(C2CCC(=O)NC2=O)c2ccc(CCCCCOc3ccc(CN4CCN(c5cc(-c6ccccc6O)nnc5N)CC4)cc3)cc21` (stereo not drawn) [I-85], for which the greatest degradation seen (Dmax) was under 50% and the DC50 was over 1000 nM.

As to `Cn1c(=O)n(C2CCC(=O)NC2=O)c2ccc(CCCCCCOc3ccc(CN4CCN(c5cc(-c6ccccc6O)nnc5N)CC4)cc3)cc21` (stereo not drawn) [I-86], the Dmax was under 50% and the half-maximal degradation concentration (DC50) was over 1000 nM.

Consider `Cn1c(=O)n(C2CCC(=O)NC2=O)c2ccc(CCCCCCCOc3ccc(CN4CCN(c5cc(-c6ccccc6O)nnc5N)CC4)cc3)cc21` (stereo not drawn) [I-87], for which the maximal degradation (Dmax) is under 50% and the 50% degradation concentration (DC50) was over 1000 nM.

Regarding `Cn1c(=O)n(C2CCC(=O)NC2=O)c2ccc(CCCCCCCc3cnc(N4C5CCC4CN(c4cc(-c6ccccc6O)nnc4N)C5)nc3)cc21` (stereo not drawn) [I-88], the Dmax is over 90% and the DC50 is under 100 nM.

Regarding `Cn1c(=O)n(C2CCC(=O)NC2=O)c2ccc(CCCCCCCCc3cnc(N4C5CCC4CN(c4cc(-c6ccccc6O)nnc4N)C5)nc3)cc21` (stereo not drawn) [I-89, 3-[5-[8-[2-[3-[3-amino-6-(2-hydroxyphenyl)pyridazin-4-yl]-3,8-diazabicyclo [3.2.1]octan-8-yl]pyrimidin-5-yl]octyl]-3-methyl-2-oxo-benzimidazol-1-yl]piperidine-2,6-dione], the Dmax was over 90% and the DC50 was under 100 nM.

As for `Cn1c(=O)n(C2CCC(=O)NC2=O)c2cccc(CCCOc3ccc(CN4CCN(c5cc(-c6ccccc6O)nnc5N)CC4)cc3)c21` (stereo not drawn) [I-90], the Dmax fell in the range of 50 to 70% and the 50% degradation concentration (DC50) was over 1000 nM.

As to `Cn1c(=O)n(C2CCC(=O)NC2=O)c2cccc(CCCCOc3ccc(CN4CCN(c5cc(-c6ccccc6O)nnc5N)CC4)cc3)c21` (stereo not drawn) [I-91], the Dmax is under 50% and the DC50 was over 1000 nM.

Turning to `Cn1c(=O)n(C2CCC(=O)NC2=O)c2cccc(CCCCCOc3ccc(CN4CCN(c5cc(-c6ccccc6O)nnc5N)CC4)cc3)c21` (stereo not drawn) [I-92], the Dmax was 50 to 70% and the DC50 was in the range of 100 to 500 nM.

As to `Cn1c(=O)n(C2CCC(=O)NC2=O)c2cccc(CCCCCCOc3ccc(CN4CCN(c5cc(-c6ccccc6O)nnc5N)CC4)cc3)c21` (stereo not drawn) [I-93], the Dmax was under 50% and the DC50 is over 1000 nM.

With `Cn1c(=O)n(C2CCC(=O)NC2=O)c2cccc(CCCCCCCOc3ccc(CN4CCN(c5cc(-c6ccccc6O)nnc5N)CC4)cc3)c21` (stereo not drawn) [I-94], the Dmax fell in the range of 50 to 70% and the DC50 was over 1000 nM.

On to `Cn1c(=O)n(C2CCC(=O)NC2=O)c2cccc(CCCOc3cccc(CN4CCN(c5cc(-c6ccccc6O)nnc5N)CC4)c3)c21` (stereo not drawn) [I-95], for which the maximal degradation (Dmax) is under 50% and the DC50 was over 1000 nM.

On to `Cn1c(=O)n(C2CCC(=O)NC2=O)c2cccc(CCCCOc3cccc(CN4CCN(c5cc(-c6ccccc6O)nnc5N)CC4)c3)c21` (stereo not drawn) [I-96], for which the Dmax fell in the range of 50 to 70% and the DC50 was 100 to 500 nM.

In the case of `Cn1c(=O)n(C2CCC(=O)NC2=O)c2cccc(CCCCCOc3cccc(CN4CCN(c5cc(-c6ccccc6O)nnc5N)CC4)c3)c21` (stereo not drawn) [I-97], the maximal degradation (Dmax) fell in the range of 50 to 70% and the half-maximal degradation concentration (DC50) was in the range of 100 to 500 nM.

As to `Cn1c(=O)n(C2CCC(=O)NC2=O)c2cccc(CCCCCCOc3cccc(CN4CCN(c5cc(-c6ccccc6O)nnc5N)CC4)c3)c21` (stereo not drawn) [I-98], the greatest degradation seen (Dmax) lay in the range of 50 to 70% and the 50% degradation concentration (DC50) lay in the range of 501 to 1000 nM.

For the molecule `Cn1c(=O)n(C2CCC(=O)NC2=O)c2cccc(CCCCCCCOc3cccc(CN4CCN(c5cc(-c6ccccc6O)nnc5N)CC4)c3)c21` (stereo not drawn) [I-99], the Dmax is under 50% and the 50% degradation concentration (DC50) is over 1000 nM.

Regarding `Cn1c(=O)n(C2CCC(=O)NC2=O)c2ccc(CCCOc3cccc(CN4CCN(c5cc(-c6ccccc6O)nnc5N)CC4)c3)cc21` (stereo not drawn) [I-100], the maximal degradation (Dmax) is under 50% and the DC50 is over 1000 nM.

For the molecule `Cn1c(=O)n(C2CCC(=O)NC2=O)c2ccc(CCCCOc3cccc(CN4CCN(c5cc(-c6ccccc6O)nnc5N)CC4)c3)cc21` (stereo not drawn) [I-101], the Dmax is under 50% and the DC50 is over 1000 nM.

Turning to `Cn1c(=O)n(C2CCC(=O)NC2=O)c2ccc(CCCCCOc3cccc(CN4CCN(c5cc(-c6ccccc6O)nnc5N)CC4)c3)cc21` (stereo not drawn) [I-102], the Dmax was under 50% and the DC50 is over 1000 nM.

With `Cn1c(=O)n(C2CCC(=O)NC2=O)c2ccc(CCCCCCOc3cccc(CN4CCN(c5cc(-c6ccccc6O)nnc5N)CC4)c3)cc21` (stereo not drawn) [I-103], the maximal degradation (Dmax) is under 50% and the 50% degradation concentration (DC50) was over 1000 nM.

Turning to `Cn1c(=O)n(C2CCC(=O)NC2=O)c2ccc(CCCCCCCOc3cccc(CN4CCN(c5cc(-c6ccccc6O)nnc5N)CC4)c3)cc21` (stereo not drawn) [I-104], the Dmax is 70 to 90% and the DC50 lay in the range of 100 to 500 nM.

Consider `Cn1c(=O)n(C2CCC(=O)NC2=O)c2ccc(CCCOCCN3CCN(Cc4ccc(-c5cc(-c6ccccc6O)nnc5N)cc4)CC3)cc21` (stereo not drawn) [I-105, 3-[5-[3-[2-[4-[[4-[3-amino-6-(2-hydroxyphenyl)pyridazin-4-yl]phenyl]methyl]piperazin-1-yl]ethoxy]propyl]-3-methyl-2-oxo-benzimidazol-1-yl]piperidine-2,6-dione], for which the Dmax was under 50% and the half-maximal degradation concentration (DC50) was over 1000 nM.

In the case of `Cn1c(=O)n(C2CCC(=O)NC2=O)c2cccc(CCCOCCN3CCN(Cc4ccc(-c5cc(-c6ccccc6O)nnc5N)cc4)CC3)c21` (stereo not drawn) [I-106], the Dmax was 50 to 70% and the half-maximal degradation concentration (DC50) lay in the range of 100 to 500 nM.

Consider `Cn1c(=O)n(C2CCC(=O)NC2=O)c2cccc(CCCOCCOCCN3CCN(Cc4ccc(-c5cc(-c6ccccc6O)nnc5N)cc4)CC3)c21` (stereo not drawn) [I-107], for which the maximal degradation (Dmax) was 50 to 70% and the half-maximal degradation concentration (DC50) is 100 to 500 nM.

In the case of `Cn1c(=O)n(C2CCC(=O)NC2=O)c2cccc(CCCOCCOCCOCCN3CCN(Cc4ccc(-c5cc(-c6ccccc6O)nnc5N)cc4)CC3)c21` (stereo not drawn) [I-108], the Dmax is under 50% and the DC50 was over 1000 nM.

With `CN(Cc1ccc(N2CCN(c3cc(-c4ccccc4O)nnc3N)CC2)cc1)C1CCN(Cc2cccc3c2n(C)c(=O)n3C2CCC(=O)NC2=O)CC1` (stereo not drawn) [I-109], the maximal degradation (Dmax) lay in the range of 70 to 90% and the DC50 lay within 100 to 500 nM.

Turning to `CN(CCCN1CCC(c2cccc3c2n(C)c(=O)n3C2CCC(=O)NC2=O)CC1)Cc1ccc(N2CCN(c3cc(-c4ccccc4O)nnc3N)CC2)cc1` (stereo not drawn) [I-110], the maximal degradation (Dmax) is over 90% and the DC50 was 100 to 500 nM.

`CN(CC[C@@H]1CN(CCCc2cccc3c2n(C)c(=O)n3C2CCC(=O)NC2=O)CCO1)Cc1ccc(N2CCN(c3cc(-c4ccccc4O)nnc3N)CC2)cc1` (stereo partly drawn) [I-111]: the Dmax was in the range of 70 to 90% and the DC50 was in the range of 100 to 500 nM.

`CN(CCCOCCCc1cccc2c1n(C)c(=O)n2C1CCC(=O)NC1=O)Cc1ccc(N2CCN(c3cc(-c4ccccc4O)nnc3N)CC2)cc1` (stereo not drawn) [I-112]: the maximal degradation (Dmax) is under 50% and the DC50 was over 1000 nM.
